Results published in patent US20220289753A1, “SHP2 INHIBITORS” (IRBM S.P.A., priority 2019, published 2022).

Biological target: T1, SHP-2 enzyme (Met1-Leu525) (Homo sapiens, UniProt Q06124)
T1 construct: synthetized by Origene, Met1-Leu525, cat #TP750155; purchased Origene TP750155
T1 sequence (Q06124 1-525): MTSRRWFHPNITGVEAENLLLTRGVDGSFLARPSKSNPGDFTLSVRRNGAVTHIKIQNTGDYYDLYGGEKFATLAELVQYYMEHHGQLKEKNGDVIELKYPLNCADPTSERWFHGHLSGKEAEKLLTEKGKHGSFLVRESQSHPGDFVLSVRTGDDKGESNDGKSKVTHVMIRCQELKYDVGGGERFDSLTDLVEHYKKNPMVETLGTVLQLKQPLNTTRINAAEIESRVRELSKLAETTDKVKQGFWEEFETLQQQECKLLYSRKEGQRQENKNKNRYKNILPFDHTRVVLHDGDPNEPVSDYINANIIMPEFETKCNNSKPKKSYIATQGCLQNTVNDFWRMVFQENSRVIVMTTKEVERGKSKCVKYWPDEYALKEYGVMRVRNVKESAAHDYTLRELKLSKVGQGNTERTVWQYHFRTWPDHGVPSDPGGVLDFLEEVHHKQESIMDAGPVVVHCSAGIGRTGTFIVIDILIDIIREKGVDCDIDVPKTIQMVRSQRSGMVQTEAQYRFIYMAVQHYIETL
Experiment: SHP2 inhibition enzymatic assay (DiFMUP substrate, IRS1 peptide activation)
Assay type: biochemical
Conditions: SHP2 wt; activated by 500 nM IRS1 peptide; 75 μM DiFMUP substrate
Procedure: SHP2 Inhibition Enzymatic Assay
Assay volume of 20 μL/well was assembled in 384 well black polystyrene low-binding microplates (Greiner), using the following buffer: 60 mM HEPES pH 7.2, 75 mM NaCl, 75 mM KCl, 1 mM EDTA pH 8, 0.05% tween-20, 5 mM DTT. The SHP-2 enzyme (synthetized by Origene, Met1-Leu525, cat #TP750155) was used at a final concentration of 0.5 nM.
Briefly, DMSO serially diluted testing compounds were transferred to the bottom of the assay plate. SHP2 was then added together with the IRS1 peptide. 30 minutes post incubation, the DiFMUP substrate was added to the reaction and incubated 30 min at room temperature. […] The fluorescence was detected by a microplate reader (Envision, PerkinElmer) according to the DiFMUP excitation and emission wavelength. The lower the fluorescence the higher the SHP2 inhibition.
The percentage inhibition is fitted against the compound dilutions with a four-parameter logistic regression. The inflection point (i.e. the concentration at which half-maximal inhibition is achieved) is the IC50.

| Compound | IC50 |
| --- | --- |
| Cc1cc(Cl)ccc1Sc1cnc2[nH]c(N3CCC(C)(N)CC3)nc2n1 [Example 38, 1-(5-((4-chloro-2-methylphenyl)thio)-1H-imidazo[4,5-b]pyrazin-2-yl)-4-methylpiperidin-4-amine] | < 0.5 µM |
| Cc1cccc(Sc2cnc3[nH]c(N4CCC(C)(N)CC4)nc3n2)c1C [Example 39, 1-(5-((2,3-dimethylphenyl)thio)-1H-imidazo [4,5-b]pyrazin-2-yl)-4-methylpiperidin-4-amine] | < 0.5 µM |
| CS(=O)(=O)NC1CCN(c2nc3nc(Sc4cccnc4C(F)(F)F)cnc3[nH]2)CC1 [Example 40, N-(1-(5-((2-(trifluoromethyl)pyridin-3-yl)thio)-1H-imidazo[4,5-b]pyrazin-2-yl)piperidin-4-yl)methanesulfonamide] | > 3 µM |
| OC1CCN(c2nc3nc(Sc4cccnc4C(F)(F)F)cnc3[nH]2)CC1 [Example 41, 1-(5-((2-(trifluoromethyl)pyridin-3-yl)thio)-1H-imidazo[4,5-b]pyrazin-2-yl)piperidin-4-ol] | > 3 µM |
| FC(F)(F)c1ncccc1Sc1cnc2[nH]c(N3CCC(Cn4ccnc4)CC3)nc2n1 [Example 42, 2-(4-((1H-imidazol-1-yl)methyl)piperidin-1-yl)-5-((2-(trifluoromethyl)pyridin-3-yl)thio)-1H-imidazo[4,5-b]pyrazine] | 0.5 to 3 µM |
| FC(F)(F)c1ncccc1Sc1cnc2[nH]c(NCCc3cn4ccccc4n3)nc2n1 [Example 43, N-(2-(imidazo[1,2-a]pyridin-2-yl)ethyl)-5-((2-(trifluoromethyl)pyridin-3-yl)thio)-1H-imidazo[4,5-b]pyrazin-2-amine] | 0.5 to 3 µM |
| FC(F)(F)c1ncccc1Sc1cnc2[nH]c(N3CCC34CCNCC4)nc2n1 [Example 44, 2-(1,7-diazaspiro[3.5]nonan-1-yl)-5-((2-(trifluoromethyl)pyridin-3-yl)thio)-1H-imidazo[4,5-b]pyrazine] | 0.5 to 3 µM |
| COc1ccc(Sc2cnc3[nH]c(N4CCC(C)(N)CC4)nc3n2)cc1 [Example 45, 1-(5-((4-methoxyphenyl)thio)-1H-imidazo[4,5-b]pyrazin-2-yl)-4-methylpiperidin-4-amine] | 0.5 to 3 µM |
| CC1(N)CCN(c2nc3nc(Sc4cccc(C5CC5)c4)cnc3[nH]2)CC1 [Example 46, 1-(5-((3-cyclopropylphenyl)thio)-1H-imidazo[4,5-b]pyrazin-2-yl)-4-methylpiperidin-4-amine] | 0.5 to 3 µM |
| CC1(N)CCN(c2nc3nc(Sc4cccc(C(F)(F)F)n4)cnc3[nH]2)CC1 [Example 47, 4-methyl-1-(5-((6-(trifluoromethyl)pyridin-2-yl)thio)-1H-imidazo[4,5-b]pyrazin-2-yl)piperidin-4-amine] | 0.5 to 3 µM |
| Cc1nc(-c2cccc(Sc3cnc4[nH]c(N5CCC(C)(N)CC5)nc4n3)c2)cs1 [Example 48, 4-methyl-1-(5-((3-(2-methylthiazol-4-yl)phenyl)thio)-1H-imidazo[4,5-b]pyrazin-2-yl)piperidin-4-amine] | 0.5 to 3 µM |
| CC1(N)CCN(c2nc3ncc(Sc4cccc5ncccc45)nc3[nH]2)CC1 [Example 49, 4-methyl-1-(6-(quinolin-5-ylthio)-1H-imidazo[4,5-b]pyrazin-2-yl)piperidin-4-amine] | < 0.5 µM |
| FC(F)(F)c1ncccc1Sc1cnc2[nH]c(Nc3ccc4n[nH]cc4c3)nc2n1 [Example 50, N-(2H-indazol-5-yl)-5-((2-(trifluoromethyl)pyridin-3-yl)thio)-1H-imidazo[4,5-b]pyrazin-2-amine] | 0.5 to 3 µM |
| NC(=O)C1CCN(c2nc3nc(Sc4cccnc4C(F)(F)F)cnc3[nH]2)CC1 [Example 51, 1-(5-((2-(trifluoromethyl)pyridin-3-yl)thio)-1H-imidazo[4,5-b]pyrazin-2-yl)piperidine-4-carboxamide] | > 3 µM |
| Cn1cnc(C2CCN(c3nc4nc(Sc5cccnc5C(F)(F)F)cnc4[nH]3)CC2)c1 [Example 53, 2-(4-(1-methyl-1H-imidazol-4-yl)piperidin-1-yl)-5-((2-(trifluoromethyl)pyridin-3-yl)thio)-1H-imidazo[4,5-b]pyrazine] | > 3 µM |
| CC(N)CCNc1nc2nc(Sc3cccnc3C(F)(F)F)cnc2[nH]1 (stereo not shown) [Example 54, N1-(5-((2-(trifluoromethyl)pyridin-3-yl)thio)-1H-imidazo[4,5-b]pyrazin-2-yl)butane-1,3-diamine] | 0.5 to 3 µM |

| Compound | IC50 |
| --- | --- |
| NCC1CN(c2nc3nc(Sc4cccnc4C(F)(F)F)cnc3[nH]2)C1 [Example 55, (1-(5-((2-(trifluoromethyl)pyridin-3-yl)thio)-1H-imidazo[4,5-b]pyrazin-2-yl)azetidin-3-yl)methanamine] | 0.5 to 3 µM |
| FC(F)(F)c1ncccc1Sc1cnc2[nH]c(N3CCN4CCNCC4C3)nc2n1 (stereo not shown) [Example 56, 2-(5-((2-(trifluoromethyl)pyridin-3-yl)thio)-1H-imidazo[4,5-b]pyrazin-2-yl)octahydro-2H-pyrazino[1,2-a]pyrazine] | 0.5 to 3 µM |
| Cn1nc(-c2ccc(Sc3cnc4[nH]c(N5CCC(C)(N)CC5)nc4n3)s2)cc1C(F)(F)F [Example 57, 4-methyl-1-(5-((5-(1-methyl-5-(trifluoromethyl)-1H-pyrazol-3-yl)thiophen-2-yl)thio)-1H-imidazo[4,5-b]pyrazin-2-yl)piperidin-4-amine] | > 3 µM |
| CC1(N)CCN(c2nc3nc(Sc4cccc(-c5ccccc5)c4)cnc3[nH]2)CC1 [Example 58, 1-(5-([1,1′-biphenyl]-3-ylthio)-1H-imidazo[4,5-b]pyrazin-2-yl)-4-methylpiperidin-4-amine] | 0.5 to 3 µM |
| CC1(N)CCN(c2nc3nc(Sc4ccc(-c5nnc(-c6ccccc6)o5)cc4)cnc3[nH]2)CC1 [Example 59, 4-methyl-1-(5-((4-(5-phenyl-1,3,4-oxadiazol-2-yl)phenyl)thio)-1H-imidazo[4,5-b]pyrazin-2-yl)piperidin-4-amine] | 0.5 to 3 µM |
| CCn1c(N2CCC(C)(N)CC2)nc2nc(Sc3cccnc3C(F)(F)F)cnc21 [Example 63, 1-(1-ethyl-5-((2-(trifluoromethyl)pyridin-3-yl)thio)-1H-imidazo[4,5-b]pyrazin-2-yl)-4-methylpiperidin-4-amine] | 0.5 to 3 µM |
| CC1(N)CCN(c2nc3nc(Sc4ccnc(Br)c4)cnc3[nH]2)CC1 [Example 64, 1-(5-((2-bromopyridin-4-yl)thio)-1H-imidazo[4,5-b]pyrazin-2-yl)-4-methylpiperidin-4-amine] | 0.5 to 3 µM |
| CC1(N)CCN(c2nc3nc(Sc4ccn5nccc5n4)cnc3[nH]2)CC1 [Example 65, 4-methyl-1-(5-(pyrazolo[1,5-a]pyrimidin-5-ylthio)-1H-imidazo[4,5-b]pyrazin-2-yl)piperidin-4-amine] | > 3 µM |
| CC1(N)CCN(c2nc3nc(Sc4cccc(O)n4)cnc3[nH]2)CC1 [Example 66, 6-((2-(4-amino-4-methylpiperidin-1-yl)-1H-imidazo[4,5-b]pyrazin-5-yl)thio)pyridin-2-ol] | > 3 µM |
| CN1CCOc2ccc(Sc3cnc4[nH]c(N5CCC(C)(N)CC5)nc4n3)cc21 [Example 67, 4-methyl-1-(5-((4-methyl-3,4-dihydro-2H-benzo[b][1,4]oxazin-6-yl)thio)-1H-imidazo[4,5-b]pyrazin-2-yl)piperidin-4-amine] | > 3 µM |
| Cc1ccsc1Sc1cnc2[nH]c(N3CCC(C)(N)CC3)nc2n1 [Example 68, 4-methyl-1-(5-((3-methylthiophen-2-yl)thio)-1H-imidazo[4,5-b]pyrazin-2-yl)piperidin-4-amine] | > 3 µM |
| COc1ccc2nc(Sc3cnc4[nH]c(N5CCC(C)(N)CC5)nc4n3)ccc2c1 [Example 69, 1-(5-((6-methoxyquinolin-2-yl)thio)-1H-imidazo[4,5-b]pyrazin-2-yl)-4-methylpiperidin-4-amine] | 0.5 to 3 µM |
| CC1(N)CCN(c2nc3nc(Sc4cccc5cnccc45)cnc3[nH]2)CC1 [Example 70, 1-(5-(isoquinolin-5-ylthio)-1H-imidazo[4,5-b]pyrazin-2-yl)-4-methylpiperidin-4-amine] | < 0.5 µM |
| CCn1c(N2CCC(C)(N)CC2)nc2ncc(Sc3cccnc3C(F)(F)F)nc21 [Example 72, 1-(1-ethyl-6-((2-(trifluoromethyl)pyridin-3-yl)thio)-1H-imidazo[4,5-b]pyrazin-2-yl)-4-methylpiperidin-4-amine] | > 3 µM |
| CC1(N)CCN(c2nc3nc(Sc4ccsc4Cl)cnc3[nH]2)CC1 [Example 73, 1-(5-((2-chlorothiophen-3-yl)thio)-1H-imidazo[4,5-b]pyrazin-2-yl)-4-methylpiperidin-4-amine] | < 0.5 µM |
